In patent publication US12465650B2, “Methods and compositions for targeting cancer cells in metastases” (THE BOARD OF REGENTS OF THE UNIVERSITY OF TEXAS SYSTEM, priority 2021, dated 2025):
Bridge positions count the residues as written; N and C are the ends. Ends that are not written are not given here.

Assays:
[1] = tested on: Murine 3T3L1 preadipocytes; experiment: anti-phage immunofluorescence, uptake by negative control cells; assay type: cell-based
Procedure: (§1) Immunofluorescence for tissue and cell analysis: Immunofluorescence on cells and formalin-fixed paraffin-embedded tissue sections was performed as described Zhang et al., 2012). Primary antibodies used: rabbit anti-Fd bacteriophage (Sigma Aldrich, 1:500), rabbit anti-Asp175-cleaved Caspase3 (Cell Signaling Technology, 1:100), mouse anti-E Cadherin and mouse anti-N Cadherin (BD Biosciences, 1:100). Secondary antibodies used: donkey Alexa 488-conjugated IgG (Invitrogen, 1:300) and Cy3-conjugated IgG (Jackson ImmunoResearch, 1:300). Biotinylated peptide internalization was visualized with Cy3-conjugated streptavidin IgG (Thermo Fischer Scientific, 1:50). Nuclei were stained with Hoechst 33258 (Invitrogen, 1:2000). Tissue and cell images were acquired with a Nikon Eclipse TE2000E Widefield Fluorescence Microscope (Nikon Instruments Inc.). Image quantification included 5 random microscopic fields of view at 20× magnification. Images were processed and analyzed with ImageJ software (NIH and University of Wisconsin). Cadherin co-localization was quantified based on the previously described ImageJ software object based-approach (JACoP) methodology based on the Mander's coefficient (Bolte and Cordelieres, 2006).
(§2) Murine 3T3L1 preadipocytes were used as a negative control and uptake was not observed for BLMP6-phage (FIG. 1C).

[2] = phage localization in cancer-free mice; settings: mouse, in vivo
Procedure: as §1
(§3) Tissue biodistribution was analyzed by immunofluorescence using phage-specific antibodies. […]

[3] = tested on: 4T1.2 spontaneous metastases; experiment: in vivo homing of individual phage-peptide clones, 4T1.2 model; set-up: species or system Balb/c mice; settings: mouse
Procedure: (§4) Animal experiments: Rodent studies were authorized by the Institutional Animal Care and Use Committees of UTHealth. Spontaneous cancer progression was modelled by injecting 2×10^4 4 T1.2 (mCherry+ Luciferase+) cells into the mammary fat pad of 10-week-old female Balb/c mice (Jackson Laboratory) with a 31-gauge needle. Primary tumor volume was measured weekly with calipers and calculated using the (length×width^2)/2 formula. At a tumor volume of ˜200 mm^3, mice were randomized into two cohorts and administered either vehicle (1×PBS) or cisplatin (Tocris Biosciences; 2.5 mg/kg) retro-orbitally once a week for three weeks. Metastatic progression was monitored with bioluminescence imaging. For experimental metastasis modeling in C57BL/6 mice (Jackson Laboratory), 1×10^5 B16F10 cells were intravenously injected into the tail vein and mice were used after 2 weeks. In both mice models, pulmonary metastases were observed 3 weeks post implantation. The screen for metastasis-homing peptides was performed using a 50:50 mixture of phage cyclic peptide libraries CX7C and CX8C (C: cysteine; X: any amino acid residue) provided by Erkki Koivunen (Arap et al., 2002). For every bio-panning round, a mouse with metastases (between weeks 3 and 4) was intravenously injected with 10^10 transducing units (TU) of the library. After 3 hours of circulation, the heart was perfused with 10 ml phosphate buffered saline (PBS). […] Selected phage were amplified through K91 E. coli infection and quantified via TU counting. For each round, clone enrichment was quantified based on recovery frequency among 96 phage peptide-coding inserts sequenced from PCR-amplified phage DNA (Kolonin et al., 2004). […] Radioactive uptake was measured using a Cobra II automated gamma counter (Packard) and expressed as percentage of the injected dose per gram tissue (% ID/g tissue).
Immunofluorescence for tissue and cell analysis: Immunofluorescence on cells and formalin-fixed paraffin-embedded tissue sections was performed as described Zhang et al., 2012). […] Tissue and cell images were acquired with a Nikon Eclipse TE2000E Widefield Fluorescence Microscope (Nikon Instruments Inc.). Image quantification included 5 random microscopic fields of view at 20× magnification. Images were processed and analyzed with ImageJ software (NIH and University of Wisconsin). Cadherin co-localization was quantified based on the previously described ImageJ software object based-approach (JACoP) methodology based on the Mander's coefficient (Bolte and Cordelieres, 2006).
as §3

[4] = tested on: mCherry-positive metastatic tumor cells (4T1.2); experiment: in vivo bio-panning of CX7C/CX8C phage-peptide library for lung metastasis-homing peptides; set-up: species or system Balb/c mice; settings: p≤0.0001
Procedure: as §4, with “implantation.” for “implantation. The screen for metastasis-homing peptides was performed using a 50:50 mixture of phage cyclic peptide libraries CX7C and CX8C (C: cysteine; X: any amino acid residue) provided by Erkki Koivunen (Arap et al., 2002). For every bio-panning round, a mouse with metastases (between weeks 3 and 4) was intravenously injected with 10^10 transducing units (TU) of the library. After 3 hours of circulation, the heart was perfused with 10 ml phosphate buffered saline (PBS).”, “tissue). […]” for “tissue).”

[5] = tested on: MDA-MB-231 human TNBC cells; experiment: phage-peptide clone binding to human TNBC cells; assay type: cell-based; settings: phage-displayed
Text: as §2

[6] = tested on: 4T1, B16F10 and MDA-MB-231 cancer cells that expressed N-cadherin but not E-cadherin; experiment: co-localization with cadherins in cultured cell lines; assay type: cell-based, murine, human; settings: reduced E-Cadherin expression
Procedure: Cell lines and primary cell culture: All cell lines were cultured in DMEM media (Hyclone) supplemented with penicillin-streptomycin (Gibco) and 10% fetal bovine serum (Atlas Biologicals). B16F10, MDA-MB-231, and 3T3L1 cell lines were from ATCC. 4T1.2 (4T1) cells expressing mCherry and Luciferase were a gift from S. Mani. Cisplatin-resistant 4T1.2 (4T1.2-CTX) cells were generated after treatment with cisplatin (Tocris Biosciences, 180 ng/mL).
as §1, with “Secondary antibodies used: donkey Alexa 488-conjugated IgG (Invitrogen, 1:300) and Cy3-conjugated IgG (Jackson ImmunoResearch, 1:300). Biotinylated peptide internalization was visualized with Cy3-conjugated streptavidin IgG (Thermo Fischer Scientific, 1:50). Nuclei were stained with Hoechst 33258 (Invitrogen, 1:2000).” left out, “2006). […]” for “2006).”

[7] = tested on: 4T1, B16F10 and MDA-MB-231 tumor cell lines; experiment: trypan blue exclusion assay, tumor cell lines; assay type: cell-based, murine, human; settings: 0.1 mM
Procedure: Peptides: The exemplary Hunter-killer (HK) peptides HK-BLMP5 and HK-BLMP6 were generated as “all-D-amino acid” cysteine-cyclized peptides (Celtek Bioscience). The proteolysis-resistant peptides were synthesized as acetate salts with an amino-hexanoic acid linker (NH—(CH2)5—CO) conjugating the BLMP and the apoptotic moiety KLAKLAKKLAKLAK (KLAKLAK2): SEQ ID NO:13. Following chromatographic purification, peptides were dissolved in PBS into 10 mM aliquots and stored frozen until further use. For the homing/internalization assay, peptides were biotin-labelled using the Sulfo-NHS-LC-Biotin Kit (APExBIO). Cells were plated in 24 well plates (1×10^5 cells/well), treated. Following treatment with either HK-BLMP6 (0.1 mM) or HK-BLMP5 (0.3 mM) in 0.5 ml serum free culture media for 8 hours, cells were stained with 0.4% Trypan Blue solution (MP Biomedicals) (Daquinag et al., 2016). For radioactive studies, 1,4,7,10-[…]-N′,N″,N′″,N″″-tetra-acetic acid (DOTA) t-Bu ester was purchased from Macrocyclics (Dallas, TX) and peptides were synthesized by Bachem Americas (Torrance, CA). DOTA-peptide conjugation was performed on solid-phase using previously described protocols (Azhdarinia et al., 2011). Radiolabeling with ^67GaCl3 and HPLC determination of purity were performed according to published procedures (Hernandez Vargas et al., 2019). […]

CEGPMYAKC (disulfide 1-9 (inferred)) [BLMP3]
non-specific uptake by 3T3L1 cells compared to phage-displayed BLMP6 [1]: higher non-specific uptake

CGVLPYSLC (disulfide 1-9 (inferred)) [BLMP1]
non-specific uptake by 3T3L1 cells compared to phage-displayed BLMP6 [1]: higher non-specific uptake

CHLSFSTAC (disulfide 1-9 (inferred)) [BLMP4]
non-specific uptake by 3T3L1 cells compared to phage-displayed BLMP6 [1]: higher non-specific uptake

CLRHSSKIC (disulfide 1-9 (inferred)) [BLMP5]
non-specific uptake by 3T3L1 cells compared to phage-displayed BLMP6 [1]: higher non-specific uptake
localization to lungs in cancer-free mice [2]: lack of BLMP-phage localization to lungs
distribution within primary 4T1.2 tumor [3]: dispersed throughout the tumor
localization within macro-metastases [3]: localized predominantly along the invasive edges
enrichment in the last round of bio-panning [4]: most significant enrichment
binding to MDA-MB-231 cells [5]: exhibited binding

CRAGVGRGC (disulfide 1-9 (inferred)) [BLMP6]
localization to lungs in cancer-free mice [2]: lack of BLMP-phage localization to lungs
distribution within primary 4T1.2 tumor [3]: observed selectively in a sub-population of cells associated with the vasculature
localization within macro-metastases [3]: abundant throughout
enrichment in the last round of bio-panning [4]: most significant enrichment
binding to cisplatin-resistant 4T1.2 cells [6]: maintaining BLMP6 binding
binding to MDA-MB-231 cells [5]: exhibited binding

CSGVGIASC (disulfide 1-9 (inferred)) [BLMP2]
non-specific uptake by 3T3L1 cells compared to phage-displayed BLMP6 [1]: higher non-specific uptake

KLAKLAKKLAKLAK [KLAKLAK2, untargeted apoptosis-inducing moiety]
cell death (trypan blue) [7]: No cancer cell death
